Assay results reported in PubChem BioAssay AID1033 (Sanford-Burnham Center for Chemical Genomics, 2008).
The source made the active and inactive calls. No rule for the calls is given here.

Biological target: Chaperone protein DnaK (Escherichia coli (strain K12)) (UniProt P0A6Y8)
Assay: E. coli DnaK SBD ligand binding – biophysical, NMR, chaperone (AID 1033)
Settings: Purified DnaK SBD

Chaperone protein DnaK (Escherichia coli (strain K12)), sequence (P0A6Y8 whole entry, looked up): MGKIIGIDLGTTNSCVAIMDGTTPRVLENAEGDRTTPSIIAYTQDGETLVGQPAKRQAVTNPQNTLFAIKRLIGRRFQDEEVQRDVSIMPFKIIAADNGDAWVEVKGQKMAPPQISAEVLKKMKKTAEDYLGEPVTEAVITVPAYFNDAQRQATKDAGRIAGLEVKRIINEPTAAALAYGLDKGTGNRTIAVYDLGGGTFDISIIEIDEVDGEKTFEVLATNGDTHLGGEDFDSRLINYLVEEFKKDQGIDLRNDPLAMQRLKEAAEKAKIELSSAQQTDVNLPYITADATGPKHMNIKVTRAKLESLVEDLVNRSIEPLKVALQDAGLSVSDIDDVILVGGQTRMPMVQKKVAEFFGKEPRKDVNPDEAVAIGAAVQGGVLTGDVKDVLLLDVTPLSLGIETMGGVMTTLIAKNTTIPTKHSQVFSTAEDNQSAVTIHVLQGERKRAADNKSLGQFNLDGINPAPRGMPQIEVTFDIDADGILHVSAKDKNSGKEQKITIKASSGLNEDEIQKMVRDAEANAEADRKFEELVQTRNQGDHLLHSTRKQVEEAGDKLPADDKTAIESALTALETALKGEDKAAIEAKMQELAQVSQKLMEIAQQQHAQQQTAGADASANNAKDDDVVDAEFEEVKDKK

Row | SMILES | Kd
1 | C[C@@H]1CC[C@@]2(OC1)OC1C(O)C3C4CC[C@H]5C[C@H](O[C@@H]6O[C@H](CO)[C@H](O[C@@H]7O[C@H](CO)[C@@H](O)[C@H](O[C@@H]8OC[C@@H](O)[C@H](O)[C@H]8O)[C@H]7O[C@@H]7O[C@H](CO)[C@H](O)[C@H](O[C@@H]8O[C@H](CO)[C@@H](O)[C@H](O)[C@H]8O)[C@H]7O)[C@H](O)[C@H]6O)[C@H](O)C[C@]5(C)C4CC[C@]3(C)C1[C@@H]2C (stereo partly specified) | > 4 mM (inactive)
2 | NS(=O)(=O)c1ccc(NC(=S)NC2CC2)cc1 | > 4 mM (inactive)
3 | CC(C)(O)[C@@H]1[C@H]2OC(=O)[C@@H]1[C@]1(O)C[C@H]3O[C@]34C(=O)O[C@H]2[C@]14C | > 4 mM (inactive)
4 | COc1cc(/C=C/C(=O)O)ccc1O | > 4 mM (inactive)
5 | Cc1ccc(CCC(N)=O)o1 | > 4 mM (inactive)
6 | NC(=O)Cn1nc(-c2ccc(F)cc2)ccc1=O | > 4 mM (inactive)
7 | Cc1nnc(NCc2cccnc2)[nH]c1=O | > 4 mM (inactive)
8 | O=C(O)C1CC2CC1CCC2O (stereo unspecified) | > 4 mM (inactive)
9 | CC(=O)Nc1nc(-c2cccs2)cs1 | > 4 mM (inactive)
10 | CC(=O)Nc1ccc(Oc2nc(C)cc(C)n2)cc1 | > 4 mM (inactive)
11 | O=c1nc(N2CCCCC2)nc2n1CCO2 | > 4 mM (inactive)
12 | O=S(=O)(Nc1ccc2c(c1)OCCO2)c1cccs1 | > 4 mM (inactive)
13 | CC(=O)OC[C@H]1O[C@@H](Oc2cc(OC(C)=O)c3c(=O)cc(-c4ccc(OC(C)=O)cc4)oc3c2)[C@H](OC(C)=O)[C@@H](OC(C)=O)[C@@H]1OC(C)=O | > 4 mM (inactive)
14 | COc1ccc(/C=C2/C(=O)N=C(N)N2C)cc1OC | > 4 mM (inactive)
15 | O=c1c(-c2ccco2)[n+]([O-])c2ccccc2n1O | > 4 mM (inactive)
16 | C=CC1=C(C)/C(=C/c2[nH]c(Cc3[nH]c(/C=C4\NC(=O)C(C)=C4C=C)c(C)c3CCC(=O)O)c(CCC(=O)O)c2C)NC1=O | > 4 mM (inactive)
17 | COc1ncccc1N | > 4 mM (inactive)
18 | CCn1c(=O)cc(N2CCC3(CC2)OCCO3)[nH]c1=O | > 4 mM (inactive)
19 | CC1(C)C(=O)C=C[C@@]2(C)C1C=C[C@]1(C)C2CC[C@@]2(C)[C@H](c3ccoc3)OC(=O)C3OC321 (stereo partly specified) | > 4 mM (inactive)
20 | O=C1NCCCC1C(=O)N1CCCCC1 (stereo unspecified) | > 4 mM (inactive)
21 | O=C(O)CN1C(=O)c2cccc([N+](=O)[O-])c2C1=O | > 4 mM (inactive)
22 | COc1c(O)cc(O)cc1O | > 4 mM (inactive)
23 | CC(=O)Nc1ccc(N(C)C(C)=O)cc1 | > 4 mM (inactive)
24 | CC(C)(C)C(=O)N1CCCC1C(=O)O (stereo unspecified) | > 4 mM (inactive)
25 | Cc1cc(=O)n2[nH]c(C)cc2n1 | > 4 mM (inactive)
26 | Cc1cc(=O)c2ccccc2n1CC(N)=O | > 4 mM (inactive)

Row | SMILES | Kd
27 | CC1(C)CC2(C)N(N)C(=O)CN2C(=S)N1 (stereo unspecified) | > 4 mM (inactive)
28 | CC(C)[C@@H]1CC[C@@H](C)CC1=O | > 4 mM (inactive)
29 | O=c1[nH]cc(N2CCCCC2)c(=O)[nH]1 | > 4 mM (inactive)
30 | O=C(Nc1ccccc1[N+](=O)[O-])c1ccc(=O)[nH]n1 | > 4 mM (inactive)
31 | COc1ccc(NC(=O)N2CCCCC2)cc1 | > 4 mM (inactive)
32 | O=C1CSC(=Nc2ccc(Cl)cc2)N1 | > 4 mM (inactive)
33 | CC1(C)O[C@H]2CC(=O)OC[C@]23[C@H]2CC[C@@]4(C)[C@H](c5ccoc5)OC(=O)[C@H]5O[C@]54[C@]2(C)C(=O)C[C@@H]13 | > 4 mM (inactive)
34 | CC(=O)Nc1ccc(Cl)c(C(N)=O)c1 | > 4 mM (inactive)
35 | O=C(NC1CCS(=O)(=O)C1)c1ccccc1 (stereo unspecified) | > 4 mM (inactive)
36 | COC(=O)[C@]1(C)CC[C@]2(C)CC[C@]3(C)C4=CC=C5C(=CC(=O)C(O)=C5C)[C@]4(C)CC[C@@]3(C)[C@@H]2C1 | > 4 mM (inactive)
37 | O=C(CC1SC(=O)NC1=O)Nc1nccs1 (stereo unspecified) | > 4 mM (inactive)
38 | CN1C(=O)/C(=C/c2ccccc2O)NC1=S | > 4 mM (inactive)
39 | CCN1CCC(=NO)CC1 | > 4 mM (inactive)
40 | O=C1NCCCC1C(=O)N/N=C/c1ccccc1 (stereo unspecified) | > 4 mM (inactive)
41 | CC(=O)O[C@H]1C[C@@H](OC(C)=O)C(C)(C)C2C[C@@H](OC(C)=O)[C@]3(C)C(CC[C@@]4(C)[C@H](c5ccoc5)OC(=O)[C@H]5O[C@]543)[C@]21C (stereo partly specified) | > 4 mM (inactive)
42 | O=c1cc(-c2ccc(O)cc2)oc2cc(O)cc(O)c12 | > 4 mM (inactive)
43 | COC(=O)c1cc2ccccc2cn1 | > 4 mM (inactive)
44 | COC(=O)CCC(C)[C@H]1CCC2C3C(C[C@H](O)[C@@]21C)[C@@]1(C)CC[C@@H](O)C[C@H]1C[C@H]3O (stereo partly specified) | > 4 mM (inactive)
45 | COc1ccc(-c2c(OC)c3c(OC)c4c(cc3oc2=O)OC(C)(C)C=C4)cc1 | > 4 mM (inactive)
46 | CN(C)Cc1nc2c([nH]1)c(=O)[nH]c(=O)n2C | > 4 mM (inactive)
47 | CCc1noc(C)c1C(=O)N1CCOCC1 | > 4 mM (inactive)
48 | C[C@@H]1CC[C@@]2(OC1)O[C@H]1CC3C4CC[C@H]5C[C@@H](O)CC[C@]5(C)C4CC[C@]3(C)[C@H]1[C@@H]2C (stereo partly specified) | > 4 mM (inactive)
49 | CC12CCC3C(CC3(C)C)C(C)(CCC1=O)O2 (stereo unspecified) | > 4 mM (inactive)
50 | C=CC(C)(O)CC/C=C(\C)CCC=C(C)C (stereo unspecified) | > 4 mM (inactive)
51 | CSc1ncc(C(=O)O)n1Cc1ccccc1 | > 4 mM (inactive)
52 | CS(=O)(=O)N1CCN(C(=O)c2ccccc2F)CC1 | > 4 mM (inactive)

Row | SMILES | Kd
53 | CN1CCC(NC(=O)C2CCCO2)CC1 (stereo unspecified) | > 4 mM (inactive)
54 | OCC1COc2ccccc2C1 (stereo unspecified) | > 4 mM (inactive)
55 | CCN1CCN(c2ncnc3c2nnn3C)CC1 | > 4 mM (inactive)
56 | OCC1COc2ccccc2O1 (stereo unspecified) | > 4 mM (inactive)
57 | COC(=O)c1cc(C)on1 | > 4 mM (inactive)
58 | CC(C)=CCc1c(O)cc2occ(-c3ccc4c(c3)OCO4)c(=O)c2c1O | > 4 mM (inactive)
59 | COc1cc2c(cc1OC)C1=C(C#N)CCC(=O)N1CC2 | > 4 mM (inactive)
60 | Cc1ccc(F)cc1NC(=O)c1ccc2c(c1)OCO2 | > 4 mM (inactive)
61 | COC(=O)CCSCC(=O)Nc1nccs1 | > 4 mM (inactive)
62 | CC(C)=CCOc1cc2oc(=O)ccc2cc1O | > 4 mM (inactive)
63 | O=c1c(O)c(-c2ccc(O)c(O)c2)oc2cc(O)ccc12 | > 4 mM (inactive)
64 | COC(=O)c1cn(C(=O)OC)c2ccccc12 | > 4 mM (inactive)
65 | O=C(O)CCc1ccc2c(c1)OCO2 | > 4 mM (inactive)
66 | NC(=O)C1CCN(c2nccc(C(F)(F)F)n2)CC1 | > 4 mM (inactive)
67 | NCc1ccc2c(c1)OCCO2 | > 4 mM (inactive)
68 | COC(=O)CSc1nc(N)cc(=O)[nH]1 | > 4 mM (inactive)
69 | Cc1nc(SCC#N)c2c(C)c(C)sc2n1 | > 4 mM (inactive)
70 | Nc1ccc(-n2cccn2)cc1 | > 4 mM (inactive)
71 | Cc1[nH]c2ccccc2c1CN(C)C | > 4 mM (inactive)
72 | NC(=O)c1ccc(N2C(=O)CCC2=O)cc1Cl | > 4 mM (inactive)
73 | Cn1c(CNc2ccccc2)cc(=O)n(C)c1=O | > 4 mM (inactive)
74 | CSc1nc2nccc(N)n2n1 | > 4 mM (inactive)
75 | CC1(C)C(=O)[C@@H]2C[C@@]3(O)C4=CC(=O)O[C@@H](c5ccoc5)[C@]4(C)CCC3C(C)(C2=O)[C@H]1CC(=O)O (stereo partly specified) | > 4 mM (inactive)
76 | Nc1nc(SCc2ccccc2)ns1 | > 4 mM (inactive)
